What was measured:
[1] = tested on: trauma victims with PTSD or depression; experiment: Trauma victims with PTSD or depression, 7-keto DHEA vs placebo (Example 5); assay type: in vivo, human; conditions: 75 mg/day by mouth for 1 to 6 months
[2] = tested on: midlife major and minor depression or dysthymia; conditions: case reports; cited from earlier work
healthy male volunteers = conditions: cited from earlier work
[3] = tested on: women with severe chronic PTSD; experiment: Five case reports: 7-keto DHEA in women with treatment-resistant PTSD (Example 1); assay type: in vivo, human
Source text: The following case reports are of 5 women with severe chronic PTSD resulting from severe early abuse who continued to be highly symptomatic despite receiving extensive psychotherapy and years of psychopharmacologic treatment. […] The improvements in these symptoms not only were subjective and objective, but also manifested in significant and rapid benefits in vocational and interpersonal functioning.
Ms. […] A. was so fearful and avoidant they would miss many sessions. They were so fragile and frightened they would frequently dissociate during sessions and forget what had been discussed. […] After the first week of 7-keto DHEA therapy, Ms. […] They reported feeling “more organized, more present” and being able to enjoy socializing “with a significant lessening of constant fear and self-criticism.”
The outcome of this case series offers evidence that 7-keto DHEA is beneficial in treating patients with histories of severe early trauma and persistent refractory PTSD.

trauma victims [4] = experiment: Trauma victims after a terrorist attack, 7-keto DHEA vs placebo (Example 4); assay type: in vivo, human; conditions: 50 or 75 mg/day by mouth for 2 to 6 weeks immediately following the incident
[5] = tested on: male and female patients with PTSD, panic disorder, anxiety, depression; experiment: Sixteen case reports: oral 7-keto DHEA in PTSD, panic disorder, anxiety, depression and other conditions (Example 2); assay type: in vivo, human
Procedure: In all the patient reports that follow, 7-keto DHEA was administered orally.

trauma victims [6] = experiment: Trauma victims with or without PTSD or depression, stress-related physiologic measures (Example 6); assay type: in vivo, human; conditions: 25-75 mg/day by mouth for 1 to 6 months
[7] = tested on: patients with treatment-resistant PTSD, panic disorder, anxiety, depression and other conditions; experiment: Eight case reports: 7-keto DHEA in treatment-resistant patients (Example 3); assay type: in vivo, human

## CC(=O)OC1CC[C@@]2(C)C(=CC(=O)[C@@H]3[C@@H]2CC[C@]2(C)C(=O)CC[C@@H]32)C1 (some centres unmarked) [7-keto DHEA, 3-acetyl-7-oxo-dehydroepiandrosterone]
[1]
  PTSD, depression and stress-related emotional conditions compared to placebo: reduction in their PTSD depression and stress-related emotional conditions
[2]
  induced mania: no case reports of induced mania
Healthy male volunteers; healthy male volunteers
  differences in clinical laboratory values, minor adverse experiences, vital signs, blood chemistry, urinalysis between treatment and placebo groups: no differences
Healthy male volunteers; study by Davidson et al.
  side effects or changes in clinical laboratory values: no side effects or changes in clinical laboratory values
[3]; Case 1 (PTSD, bipolar II, dissociative identity disorder), 25 mg/day, after the first week, adjunct
  clinical response: stopped feeling so fearful, stopped dissociating, was much more communicative, and related better
[3]; Case 1, 50 mg/day
  libido: went from having no libido to some libido
[3]; Case 1, after 3 weeks on 50 mg/day
  clinical response: stopped having nightmares, had much better concentration, functioned better at work and in social situations, had more stable mood
[3]; Case 1, dosage increased to 50 mg daily
  clinical response: even further improvement
[3]; Case 2 (PTSD, bipolar disorder NOS), 25 mg daily, within a few days, adjunct
  clinical response: feeling much better
[3]; Case 2, 25 mg daily, within 2 weeks
  vocational functioning: felt calm and centered enough to return to work
[3]; Case 3 (PTSD, major depressive disorder), 25 mg daily, after 4 days, adjunct
  clinical response: felt better and was no longer getting anxious and overwhelmed by stressful events
[3]; Case 3, 25 mg daily, seven days after start
  nightmares and flashbacks: fewer nightmares and flashbacks
[3]; Case 4 (PTSD with dissociative identity disorder), 50 mg for 6 weeks, adjunct
  clinical response: some improvement in daily functioning and more positive affect
[3]; Case 4, 100 mg for 6 weeks
  clinical response: became much more social
[3]; Case 4, 150 mg daily
  clinical response: continued to improve
[3]; Case 5 (anxiety, PTSD, dissociative identity disorder, panic attacks), 25 mg daily raised to 50 and 75 mg daily, single agent
  clinical response: feeling calmer and being better able to deal with the stress
[3]; all 5 treatment-resistant women, after starting 7-keto DHEA
  reduction in trauma and affective symptoms: rapid and substantial reduction in their trauma and affective symptoms
[3]; the 5 patients on 7-keto DHEA
  negative side effects: None of the 5 patients on 7-keto DHEA treatment reported any negative side effects
Trauma victims [4]
  PTSD, depression and stress-related emotional conditions compared to placebo: reduction in PTSD, depression and stress-related emotional conditions
[5]; Patient 1, PTSD and Generalized Anxiety Disorder, 25 mg/day oral
  clinical response: less anxiety within 2 days
[5]; Patient 2, PTSD, chronic anxiety, Major depression, 50 mg/day oral
  clinical response: less anxiety and depression
[5]; Patient 3, Panic Disorder and Generalized Anxiety Disorder, 25 mg/day oral
  clinical response: less anxiety and panic
[5]; Patient 4, PTSD, Generalized Anxiety Disorder, Bipolar Depression, 25 mg/day oral
  clinical response: less anxious and depressed
[5]; Patient 5, Bipolar Depression and PTSD, 25 mg/day oral
  clinical response: less anxious and depressed
[5]; Patient 6, Tourette's Syndrome, chronic dysthymia, anxiety, 50 mg/day oral
  clinical response: calmer and in a better mood
[5]; Patient 7, Ankylosing Spondylitis, chronic pain, depression, 25 mg/day oral
  clinical response: calmer and less depressed
[5]; Patient 8, Dissociative Disorder, PTSD, Major Depression, Dependent Personality Disorder, 25 mg/day oral
  clinical response: less anxiety and dissociation
[5]; Patient 9, PTSD, Generalized Anxiety Disorder, Major Depression, 25 to 50 mg/day oral
  clinical response: less anxious and depressed
[5]; Patient 10, Bipolar Depression and PTSD, 25 mg/day oral
  clinical response: less anxious and depressed
[5]; Patient 11, Bipolar Depression and PTSD, 25 mg/day oral
  clinical response: less anxious
[5]; Patient 12, Bipolar Depression and PTSD, 25 mg/day oral
  clinical response: less anxious
[5]; Patient 13, PTSD and Major Depression, 50 mg/day oral
  clinical response: less depressed and anxious
[5]; Patient 14, Adult ADHD, Bereavement, PTSD, 25 mg/day oral
  clinical response: less irritable and anxious
[5]; Patient 15, Generalized Anxiety Disorder, 25 mg/day oral
  clinical response: lower anxiety and better mood
[5]; Patient 16, Generalized Anxiety Disorder and Fibromyalgia, 25 mg/day oral
  clinical response: lower anxiety and irritability
Trauma victims [6]; patients with PTSD or depression
  stress-related physiologic measures (pain, headaches, hypertension, alcohol and substance abuse, work days lost to illness, cardiac events) compared to placebo: reduction in one or more stress-related physiologic measures
Trauma victims [6]; patients without PTSD or depression
  stress-related physiologic measures (pain, headaches, hypertension, alcohol and substance abuse, work days lost to illness, cardiac events) compared to placebo: reduction in one or more stress-related physiologic measures
[7]; Example 3 patient 7, 200 mg/day
  time the patient remained well: 9 months
[7]; Example 3 patients 3 and 6 on 7-keto DHEA (50; 100 mg/day)
  time the patient remained well: about 1 year
[7]; Patient 1, lifelong depression, PMDD, sexual PTSD, 75 mg/day
  clinical response: improved
[7]; Patient 2, lifelong anxiety, 4 years of depression, 50 mg/day
  clinical response: very effective
[7]; Patient 3, GAD, panic disorder, fibromyalgia/CFS, 50 mg/day
  clinical response: improvement in their symptoms
[7]; Patient 4, severe dissociative identity disorder, fibromyalgia, Bipolar Disorder, 200 mg/day
  clinical response: has been well for a year and is able to read and function
[7]; Patient 5, PTSD and bipolar 2 disorder, 50 mg/day in summer, 100 mg/day in winter
  clinical response: very effective
[7]; Patient 6, failed most antidepressants, atypical antipsychotics and ECT, 100 mg/day
  clinical response: tremendous positive effects in 1 week
[7]; Patient 6, dosage increased from 100 mg/day to 300 mg/day after stressful episode (breast cancer)
  clinical response after partial relapse: good results
[7]; Patient 7, lifelong depression, sexual PTSD, fibromyalgia/CFS, 200 mg/day
  clinical response: significant benefit
